Laboratory results reported in patent US8426673B2, “Pathological animal model for pelvic pain syndrome” (Astellas Pharma, Inc., priority 2008, dated 2013).
Where two headings read alike, the source gives them in different places.

Experiments:
Male Wistar rats [1] = assay: Intra testicular injection of acetic acid-induced characteristic pain or discomfort behavior; type: in vivo, rat
Protocol: (§1) Male Wistar rats aged 5 to 12 weeks (Charles River Japan) were used. Positions of the testes were confirmed by keeping the waist of each rat from the dorsal side, and a stimulative substance at a volume of 1 ml/kg was administered into the right and left testes using a syringe equipped with a 27 G needle.
When the intra-testicular administration is achieved, the testes are swelled and become hard in touch. The individuals whose testes were not swelled after the injection were judged as failure in the injection and excluded from further analysis. In addition, dye mixed stimulative substance was injected into the testes and the distribution of the dye within the testes was checked after completion of the experiments to verify whether a stimulative substance was successfully administered or not.
All data was presented as mean and standard error of the mean. The unpaired parametric t-test was used to compare the two group. The parametric Dunnett's multiple comparison test was performed to compare the three groups or more. P<0.05 was considered statistically significant.
(1) Dose-dependency of acetic acid: A rat was placed individually in a clear, round, plastic container (Natsume, Japan) for observation immediately after the intra testicular injection of 0.3, 1 and 3% acetic acid aqueous solutions or distilled water. […] Among these behaviors, the number of behaviors 1) to 3), frequently observed behavior, was counted from 5 to 20 minutes after the intra testicular injection of acetic acid.
(2) Effects of indomethacin: Indomethacin at 5 mg/3 mL/kg (Sigma-Aldrich Japan, Japan) or 0.1% Na2CO3 aqueous solution (vehicle solution) was orally administered 1 hour before the intra testicular injection of 1% acetic acid. Number of the characteristic pain or discomfort behavior was measured in the same manner as described in the above section.

Male Wistar rats [2] = conditions: 1% acetic acid 1 ml/kg intra testicular; 30 to 60 min after injection; distilled water group 97±8%; p<0.05
Description: All data was presented as mean and standard error of the mean. The unpaired parametric t-test was used to compare the two group. P<0.05 was considered statistically significant.

Male Wistar rats [3] = assay: Intra testicular injection of NGF-induced pain or discomfort behavior; type: in vivo, rat; conditions: 10 to 30 minutes after injection, p<0.01
Protocol: as §1
When the intra-testicular administration is achieved, the testes are swelled and become hard in touch. The individuals whose testes were not swelled after the injection were judged as failure in the injection and excluded from further analysis. […]
(1) Dose dependency of NGF: Mouse NGF 2.5S (Alomone Labs, Ltd., Israel) at […] or saline (vehicle solution) was administered to both of the testes in rat. […] Thus, the total time the behavior of 1) was measured by a stopwatch from 10 to 30 minutes after the intra testicular injection.
(2) Effects of morphine: Morphine (Takeda Chemical Industry, Ltd., Japan) at 5 mg/kg or saline (vehicle solution) was subcutaneously administered 30 minutes before the intra testicular injection of 100 μg/kg NGF. Total time of the above mentioned characteristic pain or discomfort behavior was measured from 10 to 30 minutes after the intra testicular injection of NGF. […]

Male Wistar rats [4] = assay: Effects of intra testicular injection of NGF on bladder capacity (conscious cystometry); type: in vivo, rat; conditions: 100 μg/kg NGF (1 ml/kg) intra testicular; 30 to 60 min after injection; saline group 104±14%; p<0.01
Protocol: P<0.05 was considered statistically significant.
After that, “pre bladder capacity” was recorded for 1 hr. […] Physiological saline (1 ml/kg) or 100 μg/kg NGF (1 ml/kg) were injected into the testes. […] The bladder capacity in the saline treated group was 104±14%, thus showing no significant change. […] This change was significant in comparison with that of physiological saline treated group (FIG. 6).

COc1ccc2c(c1)c(CC(=O)O)c(C)n2C(=O)c1ccc(Cl)cc1 [indomethacin, Indomethacin]
number of the characteristic pain or discomfort behaviors (Male Wistar rats [1]; 5 mg/3 mL/kg orally 1 hour before intra testicular 1% acetic acid, counted 5 to 20 minutes, vehicle group 19±6 times, p<0.01): 3±2 times

CC(=O)O [acetic acid]
bladder capacity, percent of the pre bladder capacity (Male Wistar rats [2]): 53±12%
characteristic pain or discomfort behaviors (Male Wistar rats [1]; 0.3% acetic acid aqueous solution, 1 ml/kg intra testicular, 5 to 20 minutes after injection, rat): No characteristic pain or discomfort behaviors was observed
number of pain or discomfort behaviors (Male Wistar rats [1]; 1% acetic acid aqueous solution, 1 ml/kg intra testicular; behaviors 1) to 3) counted 5 to 20 minutes after injection, rat): 16±2 times
number of pain or discomfort behaviors (Male Wistar rats [1]; 3% acetic acid aqueous solution, 1 ml/kg intra testicular; behaviors 1) to 3) counted 5 to 20 minutes after injection, rat): 19±6 times

CN1CC[C@]23c4c5ccc(O)c4O[C@H]2[C@@H](O)C=C[C@H]3[C@H]1C5 [morphine, Morphine]
total time of the characteristic pain or discomfort behavior (Male Wistar rats [3]; 5 mg/kg subcutaneously 30 minutes before intra testicular 100 μg/kg NGF, vehicle group 167±31 seconds): 9 ± 4 s

B1: NGF: Mouse NGF 2.5S (Alomone Labs), nerve growth factor used as stimulative substance injected into the testes (protein, UniProt P01139 122-241, looked up)
Beta-nerve growth factor: SSTHPVFHMGEFSVCDSVSVWVGDKTTATDIKGKEVTVLAEVNINNSVFRQYFFETKCRASNPVESGCRGIDSKHWNSYCTTTHTFVKALTTDEKQAAWRFIRIDTACVCVLSRKATRRG
bladder capacity, percent of the pre bladder capacity (Male Wistar rats [4]): 29±9%
total time of the characteristic pain or discomfort behavior (scratching the body vigorously with hindlimbs) (Male Wistar rats [3]; 100 μg/ml/kg NGF intra testicular, vehicle group 1.0±0.4 second): 155 ± 29 s
